Source: patent US6277862A, “Quinoline derivatives” (SmithKline Beecham S.p.A., priority 1995, dated 2001)
Counter-ions that a name gives are not always drawn.

How the values were obtained:
[1] = molecular target: T1, human neurokinin-3 receptors expressed in CHO cell lines (Homo sapiens, UniProt P29371); test: biochemical; settings: human NK-3 receptors in CHO cell lines; radioligand [125I]-[Me-Phe7]-NKB; mean of 2-5 separate experiments in duplicate or triplicate; read-out: Binding affinity in hNK-3-CHO IC50
T1 sequence (P29371 1-465): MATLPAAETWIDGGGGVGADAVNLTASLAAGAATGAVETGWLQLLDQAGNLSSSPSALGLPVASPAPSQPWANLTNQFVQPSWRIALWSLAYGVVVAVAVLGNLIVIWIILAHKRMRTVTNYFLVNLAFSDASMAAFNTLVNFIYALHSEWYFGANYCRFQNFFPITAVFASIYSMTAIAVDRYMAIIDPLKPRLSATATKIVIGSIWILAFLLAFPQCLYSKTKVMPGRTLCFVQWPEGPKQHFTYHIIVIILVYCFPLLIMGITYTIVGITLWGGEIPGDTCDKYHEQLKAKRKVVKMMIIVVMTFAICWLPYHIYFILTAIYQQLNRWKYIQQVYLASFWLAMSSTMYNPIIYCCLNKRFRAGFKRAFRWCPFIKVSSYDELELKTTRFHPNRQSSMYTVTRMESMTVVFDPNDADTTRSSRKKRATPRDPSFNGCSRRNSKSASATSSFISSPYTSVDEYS
Procedure: The activity of the compounds of the present invention, as NK3 ligands, is determined by their ability to inhibit the binding of the radiolabelled NK3 ligands, [^125 I]-[Me--Phe^7 ]-NKB or [^3 H]-Senktide, to guinea-pig and human NK3 receptors (Renzetti et at, 1991, Neuropeptide, 18, 104-114; Buell et al, 1992, FEBS, 299(1), 90-95; Chung et al, 1994, Biochem. Biophys. Res. Commun., 198(3), 967-972).
The binding assays utilized allow the determination of the concentration of the individual compound required to reduce by 50% the [^125 I]-[Me--Phe^7 ]-NKB and [^3 H]-Senktide specific binding to NK3 receptor in equilibrium conditions (IC50).
The NK3 -antagonist activity of the compounds of the present invention is determined by their ability to inhibit senktide-induced contraction of the guinea-pig ileum (Maggi et al, 1990, Br. J. Pharmacol., 101, 996-1000) and rabbit isolated iris sphincter muscle (Hall et al., 1991, Eur. J. Pharmacol., 199, 9-14) and human NK3 receptors-mediated Ca^++ mobilization (Mochizuki et al, 1994, J. Biol. Chem., 269, 9651-9658). Guinea-pig and rabbit in-vitro functional assays provide for each compound tested a mean KB value of 3-8 separate experiments, where KB is the concentration of the individual compound required to produce a 2-fold rightward shift in the concentration-response curve of senktide. Human receptor functional assay allows the determination of the concentration of the individual compound required to reduce by 50% (IC50 values) the Ca^++ mobilization induced by the agonist NKB.

[2] = molecular target: T2, NK-3 receptor relative to the NK-2 receptor (Homo sapiens, UniProt P29371); test: Selectivity for the NK-3 receptor relative to the NK-2 receptor; assay type: binding; settings: in words
T2 construct: counter-target NK-2 receptor (TACR2, human P21452); assay not given
T2 sequence (P29371 1-465): T1 sequence (P29371 1-465)

[3] = system: NK-2 and NK-3 receptors; test: Combined NK-2/NK-3 antagonism; settings: in words

IC50 [1] [nM]	SMILES	selectivity for the NK-3 receptor relative to the NK-2 receptor [2]	combined NK-2/NK-3 antagonism [3]
1.3	CC[C@H](NC(=O)c1c(OCCNC2Cc3ccccc3C2)c(-c2ccccc2)nc2ccccc12)c1ccccc1 [Example 8, (S)-N-(α-ethylbenzyl)-3-[2-(2-indanylamino)ethoxy]-2-phenylquinoline-4-carboxamide hydrochloride]	–	–
2.2	CC[C@H](NC(=O)c1c(OCCNC(=O)c2ccccc2)c(-c2ccccc2)nc2ccccc12)c1ccccc1 [Example 9, (S)-N-(α-ethylbenzyl)-3-(2-benzoylaminoethoxy)-2-phenylquinoline-4-carboxamide]	–	–
1.7	CC[C@H](NC(=O)c1c(OCCCC(=O)O)c(-c2ccccc2)nc2ccccc12)c1ccccc1 [Example 11, (S)-N-(a-ethylbenzyl)-3-(carboxypropoxy)-2-phenylquinoline-4-carboxamide]	–	–
2.3	CC[C@H](NC(=O)c1c(OCCNC(=O)CCC(=O)O)c(-c2ccccc2)nc2ccccc12)c1ccccc1 [Example 14, (S)-N-(a-ethylbenzyl)-3-[2-(3-carboxypropanoyl)aminoethoxy]-2-phenylquinoline-4-carboxamide]	–	–
0.6	CC[C@H](NC(=O)c1c(OCCNC(=O)Cc2ccccc2)c(-c2ccccc2)nc2ccccc12)c1ccccc1 [Example 22]	–	–
2.6	CC[C@H](NC(=O)c1c(OCCNC(=O)CN)c(-c2ccccc2)nc2ccccc12)c1ccccc1 [Example 25, (S)-N-(a-ethylbenzyl)-3-(2-aminoacetylaminoethoxy)-2-phenylquinoline-4-carboxamide]	–	–
0.9	CC[C@H](NC(=O)c1c(OCCNC(=O)Cc2ccncc2)c(-c2ccccc2)nc2ccccc12)c1ccccc1 [Example 26, (S)-N-(a-ethylbenzyl)-3-[2-(4-pyridylacetyl)aminoethoxy]-2-phenylquinoline-4-carboxamide]	–	–
0.8	CC[C@H](NC(=O)c1c(OCCNC(=O)Cc2ccccc2C(=O)O)c(-c2ccccc2)nc2ccccc12)c1ccccc1 [Example 29, (S)-N-(a-ethylbenzyl)-3-[2-(2'-carboxyphenylacetyl)aminoethoxy]-2-phenylquinoline-4-carboxamide]	–	–
1.5	CC[C@H](NC(=O)c1c(OCCNC(=O)c2ccccc2CC(=O)O)c(-c2ccccc2)nc2ccccc12)c1ccccc1 [Example 30, (S)-N-(a-ethylbenzyl)-3-[2-(2'-carboxymethylbenzoyl)aminoethoxy]-2-phenylquinoline-4-carboxamide]	–	–
1.6	CC[C@H](NC(=O)c1c(OCc2ccncc2)c(-c2ccccc2)nc2ccccc12)c1ccccc1 [Example 34]	particularly selective for the NK-3 receptor relative to the NK-2 receptor	–
0.2	CC[C@H](NC(=O)c1c(OCCNC(=O)c2cnccn2)c(-c2ccccc2)nc2ccccc12)c1ccccc1 [Example 36]	particularly selective for the NK-3 receptor relative to the NK-2 receptor	–
0.4	CC[C@H](NC(=O)c1c(OCCCNC(=O)c2cnccn2)c(-c2ccccc2)nc2ccccc12)c1ccccc1 [Example 38]	particularly selective for the NK-3 receptor relative to the NK-2 receptor	–
–	CC[C@H](NC(=O)c1c(OCCNC(=O)Cc2ccccc2CNC)c(-c2ccccc2)nc2ccccc12)c1ccccc1 [Example 39]	–	particularly suitable as combined NK-2/NK-3 antagonists
1.3	CC[C@H](NC(=O)c1c(OCCNC(=O)Cc2ccccc2CN2CCCC2)c(-c2ccccc2)nc2ccccc12)c1ccccc1 [Example 40]	–	particularly suitable as combined NK-2/NK-3 antagonists
0.4	CC[C@H](NC(=O)c1c(OCCNC(=O)Cc2ccccc2O)c(-c2ccccc2)nc2ccccc12)c1ccccc1 [Example 42]	–	–
